Experiment [1] addresses Diacylglycerol kinase alpha (Homo sapiens) (UniProt P23743). Nature of the experiment: Inhibition of DGKA ATP labeling site harbouring in human A-375 cells at 5 uM by KiNativ Profiling analysis relative to control. Format: cell-based.
The target in experiment [2] is T1, Phosphatidylinositol 4,5-bisphosphate 3-kinase catalytic subunit delta isoform (Homo sapiens) (UniProt O00329).
T1 sequence (whole entry): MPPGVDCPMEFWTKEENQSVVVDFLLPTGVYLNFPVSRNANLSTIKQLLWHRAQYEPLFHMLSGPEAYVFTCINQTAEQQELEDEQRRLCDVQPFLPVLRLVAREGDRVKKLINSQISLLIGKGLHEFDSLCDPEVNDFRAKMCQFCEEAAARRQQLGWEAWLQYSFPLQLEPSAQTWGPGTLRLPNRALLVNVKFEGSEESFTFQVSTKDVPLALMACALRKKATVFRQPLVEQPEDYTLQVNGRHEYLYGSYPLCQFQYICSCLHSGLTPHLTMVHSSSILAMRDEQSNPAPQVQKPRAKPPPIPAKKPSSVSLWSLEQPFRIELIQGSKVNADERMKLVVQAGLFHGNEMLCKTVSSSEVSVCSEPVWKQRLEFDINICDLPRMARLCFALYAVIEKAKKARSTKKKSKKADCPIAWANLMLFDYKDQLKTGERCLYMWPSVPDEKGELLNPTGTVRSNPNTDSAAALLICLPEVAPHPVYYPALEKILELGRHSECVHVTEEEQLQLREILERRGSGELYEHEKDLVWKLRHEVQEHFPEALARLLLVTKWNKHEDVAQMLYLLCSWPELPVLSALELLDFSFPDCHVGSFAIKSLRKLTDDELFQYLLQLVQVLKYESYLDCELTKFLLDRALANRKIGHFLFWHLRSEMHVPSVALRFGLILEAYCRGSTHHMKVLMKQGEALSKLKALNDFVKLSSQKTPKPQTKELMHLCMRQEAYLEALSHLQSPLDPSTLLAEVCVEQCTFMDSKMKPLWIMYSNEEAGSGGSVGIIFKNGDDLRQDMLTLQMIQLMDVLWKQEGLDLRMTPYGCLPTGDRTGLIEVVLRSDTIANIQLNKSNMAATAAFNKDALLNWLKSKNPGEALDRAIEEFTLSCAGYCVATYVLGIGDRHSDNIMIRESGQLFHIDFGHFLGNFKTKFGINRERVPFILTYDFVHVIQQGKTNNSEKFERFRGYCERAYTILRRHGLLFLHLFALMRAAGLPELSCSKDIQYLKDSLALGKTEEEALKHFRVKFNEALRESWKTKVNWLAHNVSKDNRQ
Nature of the experiment: Inhibition of PIK3CD ATP labeling site in human A-375 cells at 5 uM by KiNativ Profiling analysis relative to control. Format: cell-based.

Experiment [3] concerns the target Serine/threonine-protein kinase 35 (Homo sapiens) (UniProt Q8TDR2). Nature of the experiment: Inhibition of STK35 (unknown origin) at 1 uM by Ambit Kinomescan binding assay relative to control.
Experiment [4] deals with Vascular endothelial growth factor receptor 3 (Homo sapiens) (UniProt P35916). Put plainly: Inhibition of FLT4 (unknown origin) at 1 uM by Ambit Kinomescan binding assay relative to control; values are per cent of control.
Experiment [5] addresses Mitogen-activated protein kinase kinase kinase kinase 4 (Homo sapiens, UniProt O95819). Put plainly: Inhibition of ZC1/HGK K1 labeling site harbouring TGQLAAIKVMDVTEDEEEEIKLEINMLKK in human Huh-7 cells at 10 uM by KiNativ Profiling analysis relative to control. Format: cell-based.
Experiment [6] addresses Calcium/calmodulin-dependent protein kinase type 1 (Homo sapiens) (UniProt Q14012). Nature of the experiment: Inhibition of CAMK1 (unknown origin) at 10 uM by Ambit Kinomescan binding assay relative to control.
Experiment [7] concerns the target Tyrosine-protein kinase receptor Tie-1 (Homo sapiens) (UniProt P35590). Put plainly: Inhibition of TIE1 (unknown origin) at 10 uM by Ambit Kinomescan binding assay relative to control; values are per cent of control.
Experiment [8] deals with DNA-PK/Ku70/Ku85 (Homo sapiens) (UniProt P78527+P12956+P13010). Put plainly: Inhibition of DNAPK ATP labeling site harbouring KGGSWIQEINVAEKNWYPR in human Huh-7 cell lysate at 1 uM by KiNativ Profiling analysis relative to control. Type of experiment: subcellular.
The target in experiment [9] is T2, Serine/threonine-protein kinase greatwall (Homo sapiens) (UniProt Q96GX5).
T2 sequence (whole entry): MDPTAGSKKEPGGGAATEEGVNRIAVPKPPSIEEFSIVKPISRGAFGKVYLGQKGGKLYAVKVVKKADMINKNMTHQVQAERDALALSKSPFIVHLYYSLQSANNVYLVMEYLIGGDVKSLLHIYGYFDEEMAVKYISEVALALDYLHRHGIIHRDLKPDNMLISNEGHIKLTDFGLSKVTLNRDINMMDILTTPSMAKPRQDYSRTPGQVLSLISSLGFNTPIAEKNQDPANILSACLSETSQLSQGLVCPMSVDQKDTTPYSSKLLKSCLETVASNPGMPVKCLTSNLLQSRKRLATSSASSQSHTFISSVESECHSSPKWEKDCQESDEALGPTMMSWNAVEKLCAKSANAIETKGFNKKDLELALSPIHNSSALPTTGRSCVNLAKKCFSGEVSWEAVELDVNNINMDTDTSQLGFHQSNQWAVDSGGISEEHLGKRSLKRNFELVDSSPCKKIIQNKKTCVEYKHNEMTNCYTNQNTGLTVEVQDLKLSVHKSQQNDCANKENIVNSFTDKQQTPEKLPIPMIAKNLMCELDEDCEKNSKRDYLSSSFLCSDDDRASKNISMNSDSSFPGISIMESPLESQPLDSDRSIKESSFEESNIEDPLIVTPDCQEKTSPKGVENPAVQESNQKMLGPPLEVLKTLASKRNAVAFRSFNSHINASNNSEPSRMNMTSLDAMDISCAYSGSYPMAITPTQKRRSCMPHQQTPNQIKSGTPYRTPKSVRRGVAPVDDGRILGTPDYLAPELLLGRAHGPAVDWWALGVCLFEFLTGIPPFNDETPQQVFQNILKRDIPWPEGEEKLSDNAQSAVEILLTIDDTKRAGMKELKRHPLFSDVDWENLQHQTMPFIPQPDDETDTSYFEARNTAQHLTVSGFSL
Nature of the experiment: Inhibition of MASTL ATP labeling site in human Huh-7 cell lysate at 1 uM by KiNativ Profiling analysis relative to control. Type of experiment: subcellular.

Molecules are shown by their SMILES.

Calcium/calmodulin-dependent protein kinase type 1 (Homo sapiens), sequence (Q14012 whole entry, looked up): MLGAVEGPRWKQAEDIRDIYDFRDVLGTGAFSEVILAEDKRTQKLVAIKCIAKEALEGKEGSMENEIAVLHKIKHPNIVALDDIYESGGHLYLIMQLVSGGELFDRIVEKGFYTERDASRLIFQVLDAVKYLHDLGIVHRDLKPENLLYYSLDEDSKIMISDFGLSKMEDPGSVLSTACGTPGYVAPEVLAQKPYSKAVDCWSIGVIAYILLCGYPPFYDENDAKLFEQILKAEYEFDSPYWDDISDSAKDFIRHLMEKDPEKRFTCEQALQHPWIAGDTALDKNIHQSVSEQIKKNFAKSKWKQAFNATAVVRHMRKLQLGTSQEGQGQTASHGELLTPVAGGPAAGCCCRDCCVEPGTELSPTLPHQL
Tyrosine-protein kinase receptor Tie-1 (Homo sapiens), sequence (P35590 whole entry): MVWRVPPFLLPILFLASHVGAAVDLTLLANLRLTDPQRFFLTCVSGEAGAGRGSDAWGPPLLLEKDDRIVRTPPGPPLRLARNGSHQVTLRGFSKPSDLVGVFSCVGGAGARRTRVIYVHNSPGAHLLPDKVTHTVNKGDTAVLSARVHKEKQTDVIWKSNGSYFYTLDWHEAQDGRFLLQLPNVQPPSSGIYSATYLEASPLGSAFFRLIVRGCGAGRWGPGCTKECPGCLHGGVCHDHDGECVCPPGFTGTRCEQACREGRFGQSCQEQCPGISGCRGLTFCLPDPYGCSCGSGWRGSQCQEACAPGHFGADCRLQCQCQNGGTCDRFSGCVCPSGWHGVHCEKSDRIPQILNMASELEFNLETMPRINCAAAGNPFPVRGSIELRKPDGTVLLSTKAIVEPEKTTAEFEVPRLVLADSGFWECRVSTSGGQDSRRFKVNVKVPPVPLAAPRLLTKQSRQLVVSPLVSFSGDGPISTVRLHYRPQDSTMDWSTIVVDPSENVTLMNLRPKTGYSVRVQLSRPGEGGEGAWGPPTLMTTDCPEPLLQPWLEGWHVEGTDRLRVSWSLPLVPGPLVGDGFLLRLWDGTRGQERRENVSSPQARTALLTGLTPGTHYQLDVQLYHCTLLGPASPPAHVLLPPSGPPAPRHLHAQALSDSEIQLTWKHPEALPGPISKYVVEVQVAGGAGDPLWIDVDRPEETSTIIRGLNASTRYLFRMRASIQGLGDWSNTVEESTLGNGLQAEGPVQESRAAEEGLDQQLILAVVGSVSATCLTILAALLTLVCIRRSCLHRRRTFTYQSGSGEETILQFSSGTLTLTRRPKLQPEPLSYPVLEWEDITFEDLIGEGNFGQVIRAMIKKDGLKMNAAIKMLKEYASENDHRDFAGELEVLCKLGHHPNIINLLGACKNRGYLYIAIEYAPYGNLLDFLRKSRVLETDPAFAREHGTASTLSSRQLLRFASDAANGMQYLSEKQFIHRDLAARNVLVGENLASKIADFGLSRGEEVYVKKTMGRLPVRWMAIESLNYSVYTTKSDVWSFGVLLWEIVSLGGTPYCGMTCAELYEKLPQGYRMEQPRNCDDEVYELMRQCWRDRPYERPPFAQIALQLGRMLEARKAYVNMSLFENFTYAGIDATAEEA
Diacylglycerol kinase alpha (Homo sapiens), sequence (P23743 whole entry, canonical isoform): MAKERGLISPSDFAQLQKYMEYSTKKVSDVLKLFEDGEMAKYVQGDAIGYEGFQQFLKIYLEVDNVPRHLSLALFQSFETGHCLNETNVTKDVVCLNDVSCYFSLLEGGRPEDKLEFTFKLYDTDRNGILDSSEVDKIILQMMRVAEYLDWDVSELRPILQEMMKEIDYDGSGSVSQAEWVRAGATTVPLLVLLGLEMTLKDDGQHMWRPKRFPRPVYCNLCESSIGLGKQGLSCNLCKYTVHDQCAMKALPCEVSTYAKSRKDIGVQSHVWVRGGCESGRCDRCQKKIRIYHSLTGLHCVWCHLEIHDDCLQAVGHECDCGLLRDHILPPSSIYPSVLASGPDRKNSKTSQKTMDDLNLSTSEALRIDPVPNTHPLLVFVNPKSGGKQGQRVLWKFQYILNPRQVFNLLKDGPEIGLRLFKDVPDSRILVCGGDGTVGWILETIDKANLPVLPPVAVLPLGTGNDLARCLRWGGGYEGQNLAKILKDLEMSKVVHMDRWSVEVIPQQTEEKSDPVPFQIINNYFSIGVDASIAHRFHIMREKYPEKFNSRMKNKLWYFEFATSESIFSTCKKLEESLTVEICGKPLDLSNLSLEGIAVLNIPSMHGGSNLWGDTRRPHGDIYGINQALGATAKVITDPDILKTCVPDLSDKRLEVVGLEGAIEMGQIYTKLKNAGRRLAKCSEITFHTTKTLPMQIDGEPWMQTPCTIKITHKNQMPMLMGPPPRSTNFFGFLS
Vascular endothelial growth factor receptor 3 (Homo sapiens), sequence (P35916 whole entry): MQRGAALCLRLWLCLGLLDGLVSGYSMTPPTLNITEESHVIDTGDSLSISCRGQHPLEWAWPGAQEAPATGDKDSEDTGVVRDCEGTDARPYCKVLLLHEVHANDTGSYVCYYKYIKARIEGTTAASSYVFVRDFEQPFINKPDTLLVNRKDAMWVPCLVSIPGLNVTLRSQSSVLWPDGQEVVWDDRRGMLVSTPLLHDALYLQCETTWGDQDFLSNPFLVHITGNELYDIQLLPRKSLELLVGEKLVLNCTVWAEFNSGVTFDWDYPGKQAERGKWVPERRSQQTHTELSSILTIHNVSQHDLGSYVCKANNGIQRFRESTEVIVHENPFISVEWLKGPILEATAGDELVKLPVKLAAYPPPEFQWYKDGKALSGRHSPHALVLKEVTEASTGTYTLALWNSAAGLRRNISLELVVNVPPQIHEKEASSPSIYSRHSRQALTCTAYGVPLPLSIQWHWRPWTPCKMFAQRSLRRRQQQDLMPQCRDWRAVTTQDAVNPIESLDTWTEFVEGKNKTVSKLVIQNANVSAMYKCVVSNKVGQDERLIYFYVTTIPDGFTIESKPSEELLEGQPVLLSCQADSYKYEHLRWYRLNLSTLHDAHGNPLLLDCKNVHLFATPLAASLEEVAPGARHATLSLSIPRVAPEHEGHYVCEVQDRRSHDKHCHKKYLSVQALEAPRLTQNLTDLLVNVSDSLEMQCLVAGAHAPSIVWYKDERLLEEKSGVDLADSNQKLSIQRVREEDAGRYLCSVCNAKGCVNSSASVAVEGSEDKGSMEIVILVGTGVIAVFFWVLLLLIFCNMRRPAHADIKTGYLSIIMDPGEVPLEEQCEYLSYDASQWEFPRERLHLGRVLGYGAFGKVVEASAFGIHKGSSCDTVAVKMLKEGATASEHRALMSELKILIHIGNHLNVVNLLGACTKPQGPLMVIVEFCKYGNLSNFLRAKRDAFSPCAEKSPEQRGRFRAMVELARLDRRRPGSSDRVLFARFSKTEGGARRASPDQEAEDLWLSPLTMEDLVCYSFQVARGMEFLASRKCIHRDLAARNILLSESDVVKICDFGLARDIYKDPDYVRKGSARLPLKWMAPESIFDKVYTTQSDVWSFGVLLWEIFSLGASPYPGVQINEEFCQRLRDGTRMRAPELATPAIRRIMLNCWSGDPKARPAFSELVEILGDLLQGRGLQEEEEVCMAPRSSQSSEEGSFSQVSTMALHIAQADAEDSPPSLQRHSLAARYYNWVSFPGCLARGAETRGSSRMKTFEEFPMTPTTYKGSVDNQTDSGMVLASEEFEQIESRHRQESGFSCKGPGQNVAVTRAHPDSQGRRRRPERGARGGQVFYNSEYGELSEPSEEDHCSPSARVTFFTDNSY
Serine/threonine-protein kinase 35 (Homo sapiens), sequence (Q8TDR2 whole entry): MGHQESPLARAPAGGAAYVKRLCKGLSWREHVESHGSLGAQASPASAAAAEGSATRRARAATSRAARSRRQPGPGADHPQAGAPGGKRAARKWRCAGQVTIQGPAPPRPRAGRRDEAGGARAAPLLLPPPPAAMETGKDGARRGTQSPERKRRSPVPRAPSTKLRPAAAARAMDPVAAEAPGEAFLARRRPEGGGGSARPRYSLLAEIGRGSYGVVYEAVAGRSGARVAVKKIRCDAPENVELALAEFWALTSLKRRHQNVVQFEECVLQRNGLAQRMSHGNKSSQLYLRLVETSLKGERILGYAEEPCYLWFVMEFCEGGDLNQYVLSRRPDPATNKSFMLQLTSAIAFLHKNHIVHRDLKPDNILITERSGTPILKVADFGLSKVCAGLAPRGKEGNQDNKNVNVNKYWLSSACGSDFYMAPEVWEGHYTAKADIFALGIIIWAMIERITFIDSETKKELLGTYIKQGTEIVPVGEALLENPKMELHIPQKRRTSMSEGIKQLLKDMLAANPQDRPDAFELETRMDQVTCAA

As a reminder, the inhibition is the relative decrease from the control value, in per cent. For orientation: residual activity means the signal under treatment as a percentage of the control signal. Low readings indicate little activity left, high ones much activity left. With `CCN1CCN(Cc2ccc(NC(=O)c3ccc(C)c(/C=C/c4cnc5[nH]ccc5c4OC)c3)cc2C(F)(F)F)CC1`, the values for the inhibition in experiment [1], in experiment [2] and in [3] were -1.8%, 21.3% and 65%, respectively. For the same compound, the residual activity in [4] was 26%.

`CCN1CCN(Cc2ccc(NC(=O)c3ccc(C)c(Oc4ccnc5[nH]ccc45)c3)cc2C(F)(F)F)CC1`: the inhibition worked out at 75.4% in experiment [5] and 0% in experiment [6]. Also, in experiment [7], the residual activity is 0.95%.

Turning to `CNc1cc(Oc2cc(C(=O)Nc3cc(N4CCN(C)CC4)cc(C(F)(F)F)c3)ccc2C)ncn1`, the inhibition in experiment [8] came out at 15.9%; in experiment [9], 8.6%.

Source of the values: ChEMBL document CHEMBL5696442, “Discovery of type II inhibitors of TGFβ-activated kinase 1 (TAK1) and mitogen-activated protein kinase kinase kinase kinase 2 (MAP4K2)” (J Med Chem, 2015).
